Data reported in US20080268036A1, “Co-processing of active pharmaceutical/nutraceutical ingredients” (JRS Pharma, priority 2007, published 2008).

Assay type: physicochemical
Text: The slurry should be thoroughly agitated during preparation with a suitable device (like an electric lab stirrer). The desired temperature for heating the slurry will vary depending on the solubility of the active agent and the temperature that the active agent begins to degrade.

Cl.N[C@H]1C(O)O[C@H](CO)[C@@H](O)[C@@H]1O (stereo partly shown) [Glucosamine HCl]
temperature dependent solubility in water: greater than 60 °C
